Assay results: US4822775A, “Phenyl substituted dipeptide amides” (priority 1986, dated 1989)
Read-outs that look alike come from different tables or passages of the source.

Experiments:
mice = assay: Writhing assay (phenylbenzoquinone-induced writhing); assay type: in vivo, mouse; settings: 30 min before phenylbenzoquinone i.p.; for Writhing Mouse Oral: screening dose 10 mg/kg p.o. (intragastric); for Writhing Mouse Subc.: screening dose 10 mg/kg s.c.
Method: Writhing assay. Male Charles River albino mice (CD-1/HAM/1LR) weighing between 20 and 30 grams were used. Thirty minutes after subcutaneous or intragastric administration of the test compound (0.1 mg/10 gram body weight), 0.025% (w/v) phenylbenzoquinone was injected intraperitoneally (0.1 ml/10 gram body weight). Five minutes later, each mouse was placed in a large glass beaker and the number of writhes that occurred in the subsequent ten minutes is counted. A writhe consisted of dorsoflexion of the back, extension of the hindlimbs, and strong contraction of the abdominal musculature. The test compounds was considered to have produced analgesia in a mouse if the number of writhes elicited by phenylbenzoquinone was equal to or less than one-half the median number of writhes recorded for the saline-treated group that day. The results were expressed as the number of mice (out of a possible ten) in which the test compound produced analgesia.

[1] = test system: opiate receptors isolated from rat brain; assay type: binding; settings: for IC50: read-out: Opiate Binding, IC50
opiate activity = settings: cited from earlier work
rat = settings: injected directly into the brain of the rat; cited from earlier work
[2] = 1 nM 3H-Naloxone, rat brain receptor membranes, standard screening dose 10^-5 molar (words such as Inactive refer to it)
[3] = 1 nM 3H-Naloxone, rat brain receptor membranes, standard screening dose 10^-5 molar (words such as Inactive refer to it), monohydrochloride

C[C@@H](NC(=O)OCc1ccccc1)C(=O)NC1Cc2ccccc2C1 [Example 20, phenylmethyl [2-[(2,3-dihydro-1H-inden-2-yl)amino]-1R-methyl-2-oxoethyl]carbamate]
Writhing Mouse Oral (mice): Inactive | Writhing Mouse Subc. (mice): Active | Opiate Binding, IC50 [1, 2]: Inactive

2,6-dimethyltyrosyl-N-(6-methoxy-6-oxohexyl)-D-alaninamide, monohydrochloride [Example 7]
Writhing Mouse Oral (mice): Inactive | Writhing Mouse Subc. (mice): Inactive | IC50 [1, 3]: 1000 nM

C[C@@H](N)C(=O)NCCCc1cccs1 [Example 44, 2R-amino-N-[3-(2-thienyl)propyl]propanamide]
Writhing Mouse Oral (mice): Active | Writhing Mouse Subc. (mice): Active | Opiate Binding, IC50 [1, 2]: Inactive

2,6-dimethyltyrosyl-N-(6-methoxy-6-oxohexyl)-D-alaninamide, monohydrochloride [Example 5]
Writhing Mouse Subc. (mice): Inactive | IC50 [1, 3]: 10000 nM

Cc1cc(O)cc(C)c1C[C@H](N)C(=O)N[C@H](C)C(=O)NCCC(c1ccccc1)c1ccccc1.Cl [Example 73, 2,6-dimethyltyrosyl-N-(3,3-diphenylpropyl)-D-alaninamide, monohydrochloride]
Writhing Mouse Oral (mice): Inactive | Writhing Mouse Subc. (mice): Active | IC50 [1, 2]: 0.3 nM

Cc1cc(O)cc(C)c1C[C@H](N)C(=O)N[C@H](C)C(=O)NCCSc1ccccc1.Cl [Example 109]
Writhing Mouse Oral (mice): Inactive | Writhing Mouse Subc. (mice): Active

Cc1cc(O)cc(C)c1C[C@H](N)C(=O)N[C@@H](C)C(=O)N1CCCc2ccccc21.Cl (relative stereo) [Example 29, αS-R*-amino-4-hydroxy-2,6-dimethyl-N-[1S*-methyl-2-oxo-2-(1,2,3,4-tetrahydro-1-quinolinyl)ethyl]benzenepropanamide, monohydrochloride]
Writhing Mouse Oral (mice): Inactive | Writhing Mouse Subc. (mice): Inactive | IC50 [1]: 4900 nM

2,6-dimethyltyrosyl-N-[3-(3-thienyl)-2E-propenyl]-D-alaninamide, monohydrochloride [Example 58]
Writhing Mouse Oral (mice): Inactive | Writhing Mouse Subc. (mice): Active | IC50 [1, 2]: 1 nM

Cc1cc(O)cc(C)c1CC(NC(=O)OC(C)(C)C)C(=O)N[C@H](C)C(=O)NCCSc1ccccc1 (mixture of isomers) [Example 108, N-[(1,1-dimethylethoxy)carbonyl]-2,6-dimethyl-DL-tyrosyl-N-[2-(phenythio)ethyl]-D-alaninamide]
Writhing Mouse Oral (mice): Inactive | Writhing Mouse Subc. (mice): Active | IC50 [1]: 8.2 nM

2,6-dimethyltyrosyl-N-[3-(2-thienyl)propyl]-D-alaninamide, monohydrochloride [Example 47]
Writhing Mouse Oral (mice; monohydrochloride, 10 mg/kg): Active | Writhing Mouse Subc. (mice; monohydrochloride, 10 mg/kg): Active | IC50 [1, 3]: 2.9 nM

Cc1cc(O)cc(C)c1CC(NC(=O)OC(C)(C)C)C(=O)N[C@H](C)C(=O)NCCOc1ccccc1 (mixture of isomers) [Example 115, N-[(1,1-dimethylethoxy)carbonyl]O2,6-dimethyl-DL-tyrosyl-N-(2-phenoxyethyl)-D-alaninamide]
Writhing Mouse Oral (mice): Active | Writhing Mouse Subc. (mice): Active | IC50 [1]: 8.7 nM

2,6-dimethyl-L-tyrosyl-N-[2-(2-thienyl)ethyl]-D-alaninamide, monohydrochloride [Example 39]
Writhing Mouse Oral (mice): Inactive | Writhing Mouse Subc. (mice): Inactive

2,6-dimetyltyrosyl-N-[3-(2-thienyl)-2E-propenyl]-D-alaninamide, monohydrochloride [Example 52]
Writhing Mouse Oral (mice): Inactive | Writhing Mouse Subc. (mice): Active

C[C@@H](NC(=O)OCc1ccccc1)C(=O)N1CCCc2ccccc21 [Example 25, phenylmethyl [1R-methyl-2-oxo-2-(1,2,3,4-tetrahydro-1-quinolinyl)ethyl]carbamate]
Writhing Mouse Oral (mice): Inactive | Writhing Mouse Subc. (mice): Inactive | IC50 [1, 2]: 80000 nM

Cc1cc(O)cc(C)c1C[C@H](N)C(=O)N[C@H](C)C(=O)NCCSc1ccccc1.Cl [Example 109, 2,6-dimethyltyrosyl-N-[2-(2-(phenylthio)ethyl]-D-alaninamide, monohydrochloride]
IC50 [1]: 0.4 nM

COc1ccc(CCCNC(=O)[C@@H](C)N)cc1 [Example 60, αR-amino-N-[3-(4-methoxyphenyl)propyl]propanamide]
Writhing Mouse Oral (mice): Active | Writhing Mouse Subc. (mice): Active | IC50 [1, 2]: 36000 nM

2-(2R-amino-1-oxopropyl)-1,2,3,4-tetrahydroisoquinoline, monohydrochloride [Example 32]
Writhing Mouse Oral (mice): Active | Writhing Mouse Subc. (mice): Inactive | Opiate Binding, IC50 [1, 2]: Inactive

Cc1cc(O)cc(C)c1C[C@H](N)C(=O)N[C@H](C)C(=O)N1CCc2ccccc2C1.Cl (single isomer, unassigned) [Example 35, α-amino-4-hydroxy-2,6-dimethyl-N-[1R-methyl-2-oxo-2-(1,2,3,4-tetrahydro-2-isoquinolinyl)ethyl]benzenepropanamide, monohyrochloride]
Writhing Mouse Oral (mice): Active | Writhing Mouse Subc. (mice): Active | IC50 [1, 2]: 14 nM

C[C@@H](N)C(=O)NC1Cc2ccccc2C1 [Example 21]
Writhing Mouse Oral (mice): Inactive | Writhing Mouse Subc. (mice): Active | Opiate Binding, IC50 [1]: Inactive

α-amino-4-hydroxy-2,6-dimethyl-N-[1R-methyl-2-oxo-2-(1,2,3,4-tetrahydro-1-quinolinyl)ethyl]benzenepropanamide, monohydrochloride [Example 30]
Writhing Mouse Oral (mice): Inactive | Writhing Mouse Subc. (mice): Inactive

methionine enkephalin
activity in bioassays for opiate activity (opiate activity): highly active | analgesic activity (rat): only weak, fleeting analgesic activity

2,6-dimethyltyrosyl-N-(2,3-dihydro-1H-inden-2-yl)-D-alaninamide, monohydrochloride [Example 24]
Writhing Mouse Oral (mice): Inactive | Writhing Mouse Subc. (mice): Lethal | IC50 [1, 2]: 860 nM

2,6-dimethyltyrosyl-N-[3-(2-thienyl)propyl]-D-alaninamide, monohydrochloride [Example 46]
Writhing Mouse Oral (mice; monohydrochloride, 10 mg/kg): Inactive | Writhing Mouse Subc. (mice; monohydrochloride, 10 mg/kg): Inactive | IC50 [1, 3]: 220 nM

α-amino-4-hydroxy-2,6-dimethyl-N-[1R-methyl-2-oxo-2-(1,2,3,4-tetrahydro-2-isoquinolinyl)ethyl]benzenepropanamide, monohydrochloride [Example 37]
Writhing Mouse Oral (mice): Inactive | Writhing Mouse Subc. (mice): Inactive | IC50 [1, 2]: 1400 nM
